Measured values as given in patent publication US12448388B2, “PRMT5 inhibitors and uses thereof” (Gilead Sciences, Inc., priority 2023, dated 2025).
Read-outs that look alike come from different tables or passages of the source.

System: HCT116 MTAP-deleted cell lines
Assay: Cell viability assay (CellTiter-Glo, 7 days), HCT116 MTAP-deleted
Format: cell-based
Settings: Homo sapiens, HCT-116, HCT116 MTAP-deleted, class symbols, read-out: CC50
Procedure, shortened: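 PRMT5 inhibitors were serially diluted in DMSO and acoustically spotted as dose-response series into plates before cell seeding. Cells were grown with compound for 7 days at 37 °C, 5% CO2, 90% humidity, then viability was read by CellTiter-Glo luminescence and reported as CC50.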

For `CN(C(=O)c1cc2c(cc1F)nc(N)c1cncn12)[C@@H]1COc2cc(C(F)F)c(Cl)cc21` [Ff-653, (S)-4-amino-N-(5-chloro-6-(difluoromethyl)-2,3-dihydrobenzofuran-3-yl)-7-fluoro-N-methylimidazo[1,5-a]quinoxaline-8-carboxamide], the CC50 (cell viability assay) was < 100 nM.
For `Cc1ncn2c1c(N)nc1cnc(C(=O)N3CCC[C@@H]4Oc5c(ccc(OC(F)(F)F)c5F)[C@@H]43)cc12` [Fg-62, (4-amino-3-methylimidazo[1,5-a]pyrido[3,4-e]pyrazin-8-yl)((4aS,9bS)-6-fluoro-7-(trifluoromethoxy)-3,4,4a,9b-tetrahydrobenzofuro[3,2-b]pyridin-1(2H)-yl)methanone], the CC50 (cell viability assay) was < 100 nM.
With `Cn1cc(-c2ccc(CN(C(=O)c3cc4c(cc3F)nc(N)c3cncn34)C34CC(C3)C4)c(F)c2)cn1` [Ff-204, 4-amino-N-(bicyclo[1.1.1]pentan-1-yl)-7-fluoro-N-(2-fluoro-4-(1-methyl-1H-pyrazol-4-yl)benzyl)imidazo[1,5-a]quinoxaline-8-carboxamide] the CC50 (cell viability) was < 100 nM.
`CN(C(=O)c1cc2c(cc1F)nc(N)c1cncn12)[C@@H]1CCc2cc(C(F)(F)F)ccc21` (single isomer, unassigned) [Ff-398] was tested, and the CC50 (cell viability assay) was < 100 nM.
In the case of `Nc1nc2cc(F)c(C(=O)N3CCC[C@@H]4Oc5c(ccc(OC(F)(F)F)c5F)[C@@H]43)cc2n2cncc12` [Ff-343, (4-amino-7-fluoroimidazo[1,5-a]quinoxalin-8-yl)((4aS,9bS)-6-fluoro-7-(trifluoromethoxy)-3,4,4a,9b-tetrahydrobenzofuro[3,2-b]pyridin-1(2H)-yl)methanone], the CC50 (cell viability) is reported as < 100 nM.
For `CN(C(=O)c1cc2c(cc1F)nc(N)c1cncn12)[C@@H](c1ccc(OC(F)(F)F)cc1)C(F)F` [Fb-13, (S)-4-amino-N-(2,2-difluoro-1-(4-(trifluoromethoxy)phenyl)ethyl)-7-fluoro-N-methylimidazo[1,5-a]quinoxaline-8-carboxamide], the CC50 (cell viability) was < 100 nM.
`C[C@H]1CN(C(=O)c2cc3c(cc2F)nc(N)c2cncn23)[C@H]2c3ccc(Br)c(F)c3C[C@H]2O1` (single isomer, unassigned) [Ff-164] was tested, and the CC50 (cell viability) was < 100 nM.
In the case of `CN(C(=O)c1cc2c(cc1F)nc(N)c1cncn12)C(c1ccc(C(F)(F)F)cn1)C(F)F` (stereo not drawn) [Ff-577, 4-amino-N-(2,2-difluoro-1-(5-(trifluoromethyl)pyridin-2-yl)ethyl)-7-fluoro-N-methylimidazo[1,5-a]quinoxaline-8-carboxamide], the CC50 (cell viability assay) is reported as 100 to 1000 nM.
In the case of `CC1(C)C[C@@H]2Oc3cc(C(F)(F)F)ccc3[C@@H]2N(C(=O)c2cc3c(cc2F)nc(N)c2cncn23)C1` (racemic) [Ff-257, Rac-(4-amino-7-fluoroimidazo[1,5-a]quinoxalin-8-yl)((4aR,9bR)-3,3-dimethyl-7-(trifluoromethyl)-3,4,4a,9b-tetrahydrobenzofuro[3,2-b]pyridin-1(2H)-yl)methanone], the CC50 (cell viability) is reported as < 100 nM.
With `Cc1ncn2c1c(N)nc1cc(F)c(C(=O)N3C[C@H](C)C[C@@H]4Oc5nc(C(F)(F)F)ccc5[C@@H]43)cc12` [Ff-374, (4-amino-7-fluoro-3-methylimidazo[1,5-a]quinoxalin-8-yl)((3R,4aS,9bS)-3-methyl-7-(trifluoromethyl)-3,4,4a,9b-tetrahydrofuro[2,3-b:4,5-b′]dipyridin-1(2H)-yl)methanone] the CC50 (cell viability assay) was < 100 nM.
In the case of `Cc1ncc2c(N)nc3ccc(C(=O)N4CCC5(CC4)C(=O)Nc4ccccc45)cc3n12` [Ff-65, 1′-(4-amino-1-methylimidazo[1,5-a]quinoxaline-8-carbonyl)spiro[indoline-3,4′-piperidin]-2-one], the CC50 (cell viability) is reported as > 1000 nM.
In the case of `Cc1ncc2c(N)nc3cc(F)c(C(=O)N4CCC[C@@H]5Oc6c(ccc(C(F)(F)F)c6F)[C@@H]54)cc3n12` [Ff-651, (4-amino-7-fluoro-1-methylimidazo[1,5-a]quinoxalin-8-yl)((4aS,9bS)-6-fluoro-7-(trifluoromethyl)-3,4,4a,9b-tetrahydrobenzofuro[3,2-b]pyridin-1(2H)-yl)methanone], the CC50 (cell viability assay) is reported as < 100 nM.
Compound `CN(Cc1ccc2c(c1)OC(F)(F)O2)C(=O)c1ccc2nc(N)c3cncn3c2c1` [Ff-123, 4-amino-N-((2,2-difluorobenzo[d][1,3]dioxol-5-yl)methyl)-N-methylimidazo[1,5-a]quinoxaline-8-carboxamide] has a CC50 (cell viability) of 100 to 1000 nM.
`COc1nn(C)cc1N(Cc1ccc(C(F)(F)F)cc1F)C(=O)c1cc2c(cc1F)nc(N)c1cncn12` [Ff-422, 4-amino-7-fluoro-N-[[2-fluoro-4-(trifluoromethyl)phenyl]methyl]-N-(3-methoxy-1-methyl-pyrazol-4-yl)imidazo[1,5-a]quinoxaline-8-carboxamide] was tested, and the CC50 (cell viability assay) was < 100 nM.
`Nc1nc2cc(F)c(C(=O)N3CCC[C@@H]4Oc5c(ccc(F)c5F)[C@@H]43)cc2n2cncc12` (racemic) [Ff-102, Rac-(4-amino-7-fluoroimidazo[1,5-a]quinoxalin-8-yl)((4aS,9bS)-6,7-difluoro-3,4,4a,9b-tetrahydrobenzofuro[3,2-b]pyridin-1(2H)-yl)methanone] gave a CC50 (cell viability) of 100 to 1000 nM.
With `Nc1nc2cc(F)c(C(=O)N3CCO[C@@H]4Cc5cc(C(F)(F)F)ccc5[C@@H]43)cc2n2cncc12` (racemic) [Ff-34, Racemic (4-amino-7-fluoroimidazo[1,5-a]quinoxalin-8-yl)((4aS,9aR)-7-(trifluoromethyl)-2,3,9,9a-tetrahydroindeno[2,1-b][1,4]oxazin-4(4aH)-yl)methanone] the CC50 (cell viability) was < 100 nM.
For `Nc1nc2cnc(C(=O)N3CC[C@H]4C[C@@H]3c3ccc(OC(F)(F)F)cc3O4)cc2n2cncc12` (racemic) [Ff-373, Rac-(4-aminoimidazo[1,5-a]pyrido[3,4-e]pyrazin-8-yl)((2S,6R)-9-(trifluoromethoxy)-3,4-dihydro-2H-2,6-methanobenzo[b][1,5]oxazocin-5(6H)-yl)methanone], the CC50 (cell viability assay) was < 100 nM.
With `COC1(C#Cc2ccc3c(c2)OC[C@H]3N(C)C(=O)c2ccc3nc(N)c4cncn4c3c2)CCC1` [Ff-519, (S)-4-amino-N-(6-((1-methoxycyclobutyl)ethynyl)-2,3-dihydrobenzofuran-3-yl)-N-methylimidazo[1,5-a]quinoxaline-8-carboxamide] the CC50 (cell viability assay) was 100 to 1000 nM.
In the case of `CN(C(=O)c1cc2c(cc1F)nc(N)c1cncn12)[C@@H]1COc2cc(C3CCOC3)ccc21` (mixture of isomers) [Ff-484, Rac-4-amino-7-fluoro-N-methyl-N-((3S)-6-(tetrahydrofuran-3-yl)-2,3-dihydrobenzofuran-3-yl)imidazo[1,5-a]quinoxaline-8-carboxamide], the CC50 (cell viability assay) is reported as < 100 nM.
`Cc1ncn2c1c(N)nc1cc(Cl)c(C(=O)N3CCC[C@@H]4OCc5nc(C(F)(F)F)ccc5[C@@H]43)cc12` [Ff-360, (4-amino-7-chloro-3-methylimidazo[1,5-a]quinoxalin-8-yl)((4aS,10bS)-8-(trifluoromethyl)-2,3,4,4a,6,10b-hexahydro-1H-pyrano[3,2-b:5,4-b′]dipyridin-1-yl)methanone] was tested, and the CC50 (cell viability) was < 100 nM.
In the case of `C[C@@H]1CN(C(=O)c2ccc3nc(N)c4cncn4c3c2)[C@H]2c3ccc(C(F)(F)F)cc3C[C@H]2O1` [Ff-630, (4-aminoimidazo[1,5-a]quinoxalin-8-yl)((2R,4aS,9aR)-2-methyl-7-(trifluoromethyl)-2,3,9,9a-tetrahydroindeno[2,1-b][1,4]oxazin-4(4aH)-yl)methanone], the CC50 (cell viability assay) is reported as < 100 nM.
